In paper PMC3885546, “Structural Determinants of the 5′-Methylthioinosine Specificity of Plasmodium Purine Nucleoside Phosphorylase” (PLoS ONE, 2014):
Changes are numbered by the printed parent chain.

Experiments:
Test in all cases: Substrate kinetics, coupled assay
Assay type in all cases: biochemical
[1] = target: T1, PfPNP His7Ser (Plasmodium falciparum, UniProt Q8I3X4, H7S); settings: for Km / kcat: substrate = label
T1 construct: made in house; host or cells: Escherichia coli Top 10
T1 sequence (Q8I3X4 1-245 H7S): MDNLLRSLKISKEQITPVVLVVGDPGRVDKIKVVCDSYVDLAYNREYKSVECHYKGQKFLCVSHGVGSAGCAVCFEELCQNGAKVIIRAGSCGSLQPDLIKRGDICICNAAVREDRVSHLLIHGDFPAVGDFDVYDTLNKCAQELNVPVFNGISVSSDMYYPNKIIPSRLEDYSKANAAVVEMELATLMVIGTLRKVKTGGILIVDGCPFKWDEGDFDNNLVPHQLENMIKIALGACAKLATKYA
Experimental: (§1) Kinetic assays were completed in 50 mM KH2PO4 at pH 7.4 measuring phosphorylysis of inosine or MTI by PNP in a coupled reaction with 60 milliunits/ml xanthine oxidase to convert hypoxanthine to uric acid. Formation of uric acid was measured at 293 nm wavelength (E293 = 12.9 mM^−1 cm^−1), [20]. In cases where activity for MTI was low, increased protein concentration (10 µg/ml) was used to check enzyme function. Assays were performed with excess substrate in the presence of inhibitors. Inhibition studies measured both initial (Ki) and slow onset inhibition (Ki*) for inhibitors. The initial onset inhibition was analyzed by using the following equation: ν ο = (k cat×S)/(K m(1+I/Ki)+S), ν ο is the steady state rate, k cat catalytic rate, S is substrate concentration, Km is Michealis constant for inosine, I is inhibitor concentration, and Ki is the equilibrium dissociation constant.

[2] = target: T2, PfPNP V66I/V73I/Y160F (Plasmodium falciparum, UniProt Q8I3X4, V66I/V73I/Y160F); settings: for Ino/MTI kcat/Km Ratio / Km / kcat: V66I/V73I/Y160F PfPNP; for Km / kcat: substrate = label
T2 construct: made in house; host or cells: Escherichia coli Top 10
T2 sequence (Q8I3X4 1-245 V66I/V73I/Y160F): T1 sequence (Q8I3X4 1-245 H7S) with S7H, V66I, V73I, Y160F
Experimental: as §1

[3] = target: T3, PfPNP Val66Ile/Tyr160Phe (Plasmodium falciparum, UniProt Q8I3X4, V66I/Y160F); settings: for Km / kcat: substrate = label
T3 construct: made in house; host or cells: Escherichia coli Top 10
T3 sequence (Q8I3X4 1-245 V66I/Y160F): T1 sequence (Q8I3X4 1-245 H7S) with S7H, V66I, Y160F
Experimental: as §1

[4] = target: T4, PfPNP Val66Ile/Val73Ile (Plasmodium falciparum, UniProt Q8I3X4, V66I/V73I); settings: for Km / kcat: substrate = label
T4 construct: made in house; host or cells: Escherichia coli Top 10
T4 sequence (Q8I3X4 1-245 V66I/V73I): T1 sequence (Q8I3X4 1-245 H7S) with S7H, V66I, V73I
Experimental: as §1

[5] = target: T5, PfPNP Val66Ser (Plasmodium falciparum, UniProt Q8I3X4, V66S); settings: for Km / kcat: substrate = label
T5 construct: made in house; host or cells: Escherichia coli Top 10
T5 sequence (Q8I3X4 1-245 V66S): T1 sequence (Q8I3X4 1-245 H7S) with S7H, V66S
Experimental: as §1

[6] = target: T6, PfPNP Val73Ala (Plasmodium falciparum, UniProt Q8I3X4, V73A); settings: for Km / kcat: substrate = label
T6 construct: made in house; host or cells: Escherichia coli Top 10
T6 sequence (Q8I3X4 1-245 V73A): T1 sequence (Q8I3X4 1-245 H7S) with S7H, V73A
Experimental: as §1

[7] = target: T7, PfPNP Val73Ile (Plasmodium falciparum, UniProt Q8I3X4, V73I); settings: for Km / kcat: substrate = label
T7 construct: made in house; host or cells: Escherichia coli Top 10
T7 sequence (Q8I3X4 1-245 V73I): T1 sequence (Q8I3X4 1-245 H7S) with S7H, V73I
Experimental: as §1

[8] = V66I:V73I:Y160F PfPNP versus wild type

Row | Molecule | Km [1] | kcat [1] | Ino/MTI kcat/Km Ratio [2] | Km [2] | kcat [2] | Km [3] | kcat [3] | Km [4] | kcat [4] | Km [5] | kcat [5] | Km [6] | kcat [6] | Km [7] | kcat [7] | also measured
1 | 5′-methylthioinosine | 3.2 ± 2.7 µM | 0.88 ± 0.30 s⁻¹ | 160 | 18 ± 6 µM | 0.01 ± 0.00 s⁻¹ | 11 ± 2 µM | 0.05 ± 0.00 s⁻¹ | 15 ± 5 µM | 0.91 ± 0.20 s⁻¹ | 0.7 ± 0.7 µM | 0.21 ± 0.05 s⁻¹ | 20 ± 10 µM | 1.9 ± 0.3 s⁻¹ | 11 ± 8 µM | 0.81 ± 0.03 s⁻¹ | decrease in kcat [2, 8]: 83 fold; increase in Km [2, 8]: 2 fold
2 | OC[C@H]1O[C@@H](n2cnc3c(O)ncnc32)[C@H](O)[C@@H]1O [Inosine, inosine] | 14 ± 3 µM | 0.5 ± 0.3 s⁻¹ | 160 | 4 ± 1.8 µM | 0.36 ± 0.23 s⁻¹ | 6.2 ± 3.5 µM | 1.2 ± 0.16 s⁻¹ | 28 ± 11 µM | 4.6 ± 0.6 s⁻¹ | 78 ± 4 µM | 1.4 ± 1.7 s⁻¹ | 7 ± 4 µM | 1.1 ± 0.1 s⁻¹ | 13 ± 2 µM | 1.9 ± 0.7 s⁻¹ | Ino/MTI kcat/Km Ratio [1]: 0.1; Ino/MTI kcat/Km Ratio [3]: 39; Ino/MTI kcat/Km Ratio [4]: 2.7; Ino/MTI kcat/Km Ratio [5]: 0.06; Ino/MTI kcat/Km Ratio [6]: 1.6; Ino/MTI kcat/Km Ratio [7]: 2.0
